In assay [1] the target is T1, follicle-stimulating hormone (FSH) receptor (Rattus norvegicus, UniProt P20395).
T1 construct: Rat Granulosa EC50 FSH (Assay B); endogenous in cells; host or cells: rat granulosa cells
T1 sequence (P20395 18-692): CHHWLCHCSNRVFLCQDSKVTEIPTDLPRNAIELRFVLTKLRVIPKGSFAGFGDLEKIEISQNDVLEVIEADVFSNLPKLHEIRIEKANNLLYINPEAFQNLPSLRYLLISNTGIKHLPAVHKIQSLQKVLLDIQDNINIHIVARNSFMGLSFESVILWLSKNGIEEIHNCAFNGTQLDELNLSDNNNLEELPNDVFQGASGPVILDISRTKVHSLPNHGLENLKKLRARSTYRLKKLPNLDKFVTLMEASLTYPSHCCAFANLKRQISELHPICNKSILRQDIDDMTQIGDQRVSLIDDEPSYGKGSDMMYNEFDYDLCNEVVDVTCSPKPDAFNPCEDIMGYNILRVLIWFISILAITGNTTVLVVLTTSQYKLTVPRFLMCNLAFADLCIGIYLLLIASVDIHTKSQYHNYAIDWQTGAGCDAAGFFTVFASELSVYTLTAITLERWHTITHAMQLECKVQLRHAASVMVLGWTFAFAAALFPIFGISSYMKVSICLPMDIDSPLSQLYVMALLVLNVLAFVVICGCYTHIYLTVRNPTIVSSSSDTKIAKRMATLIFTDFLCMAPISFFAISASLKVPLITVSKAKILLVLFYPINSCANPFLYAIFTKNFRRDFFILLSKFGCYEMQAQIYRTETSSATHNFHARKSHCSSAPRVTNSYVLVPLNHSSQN
In words: Rat Granulosa EC50 FSH (Assay B). It counts as cell-based. The settings on record: rat granulosa cells, per Yanofsky et al. 2006.

For the next assay, the target named is T2, FSHR (Homo sapiens, UniProt P23945).
T2 construct: expressed in transfected cells; host or cells: CHO cells, clone Cho-FSHR-LUC-1-1-43
T2 sequence (P23945 18-695): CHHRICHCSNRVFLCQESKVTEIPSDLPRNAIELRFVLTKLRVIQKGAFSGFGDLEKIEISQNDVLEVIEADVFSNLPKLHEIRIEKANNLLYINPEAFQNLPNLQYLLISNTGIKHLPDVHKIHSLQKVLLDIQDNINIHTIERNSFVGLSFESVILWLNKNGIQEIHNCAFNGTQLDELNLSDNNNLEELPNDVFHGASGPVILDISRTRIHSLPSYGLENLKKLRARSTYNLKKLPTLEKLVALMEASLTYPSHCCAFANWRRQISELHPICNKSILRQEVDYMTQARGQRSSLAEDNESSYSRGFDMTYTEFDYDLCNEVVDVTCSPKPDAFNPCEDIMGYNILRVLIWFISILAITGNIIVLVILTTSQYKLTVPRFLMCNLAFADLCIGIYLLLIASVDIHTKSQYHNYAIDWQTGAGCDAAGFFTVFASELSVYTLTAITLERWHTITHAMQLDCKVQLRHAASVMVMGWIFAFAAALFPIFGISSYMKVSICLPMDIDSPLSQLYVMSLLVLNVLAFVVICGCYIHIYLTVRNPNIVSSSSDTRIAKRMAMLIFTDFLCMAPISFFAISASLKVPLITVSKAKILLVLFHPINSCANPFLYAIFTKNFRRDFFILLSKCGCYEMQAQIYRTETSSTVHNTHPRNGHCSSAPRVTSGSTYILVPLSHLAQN
Briefly: EC50 of cyclic AMP production in CHO FSHR cells + EC20 FSH (Assay A). It counts as cell-based. The settings on record: CHO-FSHR-LUC cells, in presence of EC20 FSH, cAMP HTRF, 1 h 37° C. (In TR-FRET formats the signal depends on donor and acceptor labels being close together.)

Usually EC50 stands for the concentration at which the effect is half-maximal.

Some results are limits rather than exact numbers.

For the compound `COc1cc2c(cc1OC(C)C)-n1c(-c3cccs3)nc(C(=O)N3CCOCC3(C)C)c1CO2` [Compound 139, (3,3-Dimethyl-morpholin-4-yl)-(8-isopropoxy-7-methoxy-1-thiophen-2-yl-4H-5-oxa-2,9b-diaza-cyclopenta[a]naphthalen-3-yl)-methanone], the half-maximal effective concentration (EC50) is 0.1 to 1 µM in assay [1] and below 0.1 µM on FSHR.

As to `COc1cc2c(cc1CC(C)C)-n1c(S(=O)(=O)C3CC3)nc(C(=O)N(C)C(C)(C)C)c1CC2` [Compound 34, 1-Cyclopropanesulfonyl-8-isobutyl-7-methoxy-4,5-dihydro-imidazo[1,5-a]quinoline-3-carboxylic acid tert-butyl-methyl-amide], the EC50 in assay [1] lay within 1 to 5 µM; on FSHR, 0.1 to 1 µM.

As for `COc1cc2c(cc1OC(C)C)-n1c(-c3ccc(Cl)s3)nc(C(=O)N3CCOCC3(C)C)c1CC2` [Compound 72], the EC50 (in assay [1]; on FSHR) was below 0.1 µM in each case.

Take `COc1cc2c(cc1OC(C)C)-n1c(-c3cccc(Cl)c3F)nc(C(=O)N3CCOCC3(C)C)c1CC2` [Compound 134]: the EC50 (in assay [1]; at FSHR) was 0.1 to 1 µM each time.

On to `COc1cc2c(cc1OC(C)C)-n1c(-c3ccsc3)nc(C(=O)N(C)C(C)(C)C)c1CO2` [Compound 135, 8-Isopropoxy-7-methoxy-1-thiophen-3-yl-4H-5-oxa-2,9b-diaza-cyclopenta[a]naphthalene-3-carboxylic acid tert-butyl-methyl-amide], for which the EC50 was above 5 µM in assay [1] and below 0.1 µM on FSHR.

As for `[2H]C([2H])([2H])Oc1cc2c(cc1CC(C)C)-n1c(-c3ccsc3)nc(C(=O)N3CCOCC3(C)C)c1CC2` [Compound 41, (3,3-Dimethyl-morpholin-4-yl)-(8-isobutyl-7-methoxy-d3-1-thiophen-3-yl-4,5-dihydro-imidazo[1,5-a]quinolin-3-yl)-methanone], the concentration giving a half-maximal response (EC50) is 1 to 5 µM in assay [1] and below 0.1 µM on FSHR.

As for `COc1cc2c(cc1-c1ccn(C)c1)-n1c(-c3cccs3)nc(C(=O)N3CCOCC3(C)C)c1CC2` [Compound 143, (3,3-Dimethyl-morpholin-4-yl)-[7-methoxy-8-(1-methyl-1H-pyrrol-3-yl)-1-thiophen-2-yl-4,5-dihydro-imidazo[1,5-a]quinolin-3-yl]-methanone], the EC50 is above 5 µM in assay [1] and below 0.1 µM on FSHR.

For `COc1cc2c(cc1OC(C)C)-n1c(-c3cccn3C)nc(C(=O)N3CCOCC3(C)C)c1CC2` [Compound 38], the EC50 was above 5 µM in assay [1] and 0.1 to 1 µM on FSHR.

Consider `COc1cc2c(cc1OC(C)C)-n1c(-c3cccs3)nc(C(=O)N(C)C(C)(C)C)c1CC2` [Compound 11, 8-Isopropoxy-7-methoxy-1-thiophen-2-yl-4,5-dihydro-imidazo[1,5-a]quinoline-3-carboxylic acid tert-butyl-methyl-amide], for which the EC50 in assay [1] is above 5 µM; at FSHR it was 0.1 to 1 µM.

Take `[2H]C([2H])([2H])Oc1cc2c(cc1CC(C)C)-n1c(-c3cccs3)nc(C(=O)N(C)C(C)(C)C)c1CC2` [Compound 53, 8-Isobutyl-7-methoxy-d3-1-thiophen-2-yl-4,5-dihydro-imidazo[1,5-a]quinoline-3-carboxylic acid tert-butyl-methyl-amide]: the EC50 in assay [1] is 1 to 5 µM; at FSHR, below 0.1 µM.

As to `COc1cc2c(cc1CC(C)C)-n1c(-c3ccc(F)s3)nc(C(=O)N3CCOCC3(C)C)c1CC2` [Compound 19, (3,3-Dimethyl-morpholin-4-yl)-[1-(5-fluoro-thiophen-2-yl)-8-isobutyl-7-methoxy-4,5-dihydro-imidazo[1,5-a]quinolin-3-yl]-methanone], the EC50 in assay [1] was 0.1 to 1 µM; on FSHR, below 0.1 µM.
